In PubChem BioAssay (NCI):
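Dose response: 5 concentrations. Exposure: 48 h. Format: 96-well plates. Endpoint: linear interpolation; highest concentration if not reached. GI50 marks 50% less growth. Definition used: TGI = concentration required for complete inhibition of growth.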

Legend:
Experiment in all cases: DTP human tumour cell line panel, 48 h
SK-OV-3 ovarian = test system: SK-OV-3 ovarian
DU-145 prostate = test system: DU-145 prostate
T-47D breast = test system: T-47D breast
HOP-62 NSCLC = test system: HOP-62 NSCLC
SK-MEL-5 melanoma = test system: SK-MEL-5 melanoma
UACC-62 melanoma = test system: UACC-62 melanoma
SW-620 colon = test system: SW-620 colon
NCI-H522 lung = test system: NCI-H522 lung
U251 CNS = test system: U251 CNS
M14 melanoma = test system: M14 melanoma
KM12 colon = test system: KM12 colon
PC-3 prostate = test system: PC-3 prostate
SN12C renal = test system: SN12C renal
OVCAR-4 ovarian = test system: OVCAR-4 ovarian
COLO 205 colon = test system: COLO 205 colon
CAKI-1 renal = test system: CAKI-1 renal
OVCAR-3 ovarian = test system: OVCAR-3 ovarian
SNB-19 CNS = test system: SNB-19 CNS
SR leukemia = test system: SR leukemia
NCI/ADR-RES ovarian = test system: NCI/ADR-RES ovarian
SK-MEL-28 melanoma = test system: SK-MEL-28 melanoma
BT-549 breast = test system: BT-549 breast
RPMI-8226 leukemia = test system: RPMI-8226 leukemia
SF-295 CNS = test system: SF-295 CNS
NCI-H226 lung = test system: NCI-H226 lung
IGROV1 ovarian = test system: IGROV1 ovarian
A549 NSCLC = test system: A549 NSCLC
MOLT-4 leukemia = test system: MOLT-4 leukemia
ACHN renal = test system: ACHN renal
A498 renal = test system: A498 renal
HCT-116 colon = test system: HCT-116 colon
SNB-75 CNS = test system: SNB-75 CNS
NCI-H23 lung = test system: NCI-H23 lung
HS 578T breast = test system: HS 578T breast
UACC-257 melanoma = test system: UACC-257 melanoma
HCC-2998 colon = test system: HCC-2998 colon
NCI-H460 lung = test system: NCI-H460 lung
SF-268 CNS = test system: SF-268 CNS
CCRF-CEM leukemia = test system: CCRF-CEM leukemia
MCF7 breast = test system: MCF7 breast
OVCAR-5 ovarian = test system: OVCAR-5 ovarian
SK-MEL-2 melanoma = test system: SK-MEL-2 melanoma
LOX IMVI melanoma = test system: LOX IMVI melanoma
HT29 colon = test system: HT29 colon
OVCAR-8 ovarian = test system: OVCAR-8 ovarian
K-562 leukemia = test system: K-562 leukemia
MDA-MB-231 breast = test system: MDA-MB-231 breast
SF-539 CNS = test system: SF-539 CNS
TK-10 renal = test system: TK-10 renal
MDA-MB-435 = test system: MDA-MB-435
HCT-15 colon = test system: HCT-15 colon
RXF 393 renal = test system: RXF 393 renal
HL-60(TB) leukemia = test system: HL-60(TB) leukemia
786-0 renal = test system: 786-0 renal
EKVX NSCLC = test system: EKVX NSCLC
HOP-92 NSCLC = test system: HOP-92 NSCLC
MALME-3M melanoma = test system: MALME-3M melanoma
UO-31 renal = test system: UO-31 renal

Nc1ncc(-c2ccc3ncnc(N4CCc5ccc(Cl)cc54)c3c2)cn1
GI50 (SK-OV-3 ovarian): 1.37 µM | TGI (SK-OV-3 ovarian): 7.03 µM | GI50 (DU-145 prostate): 0.971 µM | TGI (DU-145 prostate): > 100 µM | GI50 (T-47D breast): 0.313 µM | TGI (T-47D breast): 30 µM | GI50 (HOP-62 NSCLC): 0.743 µM | TGI (HOP-62 NSCLC): > 100 µM | GI50 (SK-MEL-5 melanoma): 1.46 µM | TGI (SK-MEL-5 melanoma): 4.94 µM | GI50 (UACC-62 melanoma): 1.31 µM | TGI (UACC-62 melanoma): 5.98 µM | GI50 (SW-620 colon): 2.83 µM | TGI (SW-620 colon): > 100 µM | GI50 (NCI-H522 lung): 2.66 µM | TGI (NCI-H522 lung): 15.8 µM | GI50 (U251 CNS): 2.46 µM | TGI (U251 CNS): > 100 µM | GI50 (M14 melanoma): 1.88 µM | TGI (M14 melanoma): > 100 µM | GI50 (KM12 colon): 2.34 µM | TGI (KM12 colon): 97.6 µM | GI50 (PC-3 prostate): 0.739 µM | TGI (PC-3 prostate): > 100 µM | GI50 (SN12C renal): 0.813 µM | TGI (SN12C renal): > 100 µM | GI50 (OVCAR-4 ovarian): 1.61 µM | TGI (OVCAR-4 ovarian): 24.8 µM | GI50 (COLO 205 colon): 2.01 µM | TGI (COLO 205 colon): 9.53 µM | GI50 (CAKI-1 renal): 1.19 µM | TGI (CAKI-1 renal): > 100 µM | GI50 (OVCAR-3 ovarian): 1.88 µM | TGI (OVCAR-3 ovarian): > 100 µM | GI50 (SNB-19 CNS): 2.55 µM | TGI (SNB-19 CNS): > 100 µM | GI50 (SR leukemia): 1.04 µM | TGI (SR leukemia): 18.1 µM | GI50 (NCI/ADR-RES ovarian): 1.86 µM | TGI (NCI/ADR-RES ovarian): > 100 µM | GI50 (SK-MEL-28 melanoma): 2.01 µM | TGI (SK-MEL-28 melanoma): > 100 µM | GI50 (BT-549 breast): 0.603 µM | TGI (BT-549 breast): 8.51 µM | GI50 (RPMI-8226 leukemia): 0.584 µM | TGI (RPMI-8226 leukemia): 4.44 µM | GI50 (SF-295 CNS): 1.03 µM | TGI (SF-295 CNS): 6.89 µM | GI50 (NCI-H226 lung): 1.35 µM | TGI (NCI-H226 lung): 27.4 µM | GI50 (IGROV1 ovarian): 0.291 µM | TGI (IGROV1 ovarian): 2.34 µM | GI50 (A549 NSCLC): 1.26 µM | TGI (A549 NSCLC): > 100 µM | GI50 (MOLT-4 leukemia): 0.563 µM | TGI (MOLT-4 leukemia): 3.81 µM | GI50 (ACHN renal): 0.584 µM | TGI (ACHN renal): > 100 µM | GI50 (A498 renal): 0.248 µM | TGI (A498 renal): 0.8 µM | GI50 (HCT-116 colon): 1.68 µM | TGI (HCT-116 colon): 10.8 µM | GI50 (SNB-75 CNS): 0.418 µM | TGI (SNB-75 CNS): 3.98 µM | GI50 (NCI-H23 lung): 1.9 µM | TGI (NCI-H23 lung): > 100 µM | GI50 (HS 578T breast): 0.437 µM | TGI (HS 578T breast): 4.39 µM | GI50 (UACC-257 melanoma): 2.98 µM | TGI (UACC-257 melanoma): > 100 µM | GI50 (HCC-2998 colon): 1.5 µM | TGI (HCC-2998 colon): 87.2 µM | GI50 (NCI-H460 lung): 1.46 µM | TGI (NCI-H460 lung): > 100 µM | GI50 (SF-268 CNS): 1.63 µM | TGI (SF-268 CNS): > 100 µM | GI50 (CCRF-CEM leukemia): 1.02 µM | TGI (CCRF-CEM leukemia): > 100 µM | GI50 (MCF7 breast): 0.684 µM | TGI (MCF7 breast): 31.7 µM | GI50 (OVCAR-5 ovarian): 0.532 µM | TGI (OVCAR-5 ovarian): > 100 µM | GI50 (SK-MEL-2 melanoma): 1.56 µM | TGI (SK-MEL-2 melanoma): 4.53 µM | GI50 (LOX IMVI melanoma): 0.87 µM | TGI (LOX IMVI melanoma): 23.5 µM | GI50 (HT29 colon): 1.06 µM | TGI (HT29 colon): 82.6 µM | GI50 (OVCAR-8 ovarian): 1.84 µM | TGI (OVCAR-8 ovarian): > 100 µM | GI50 (K-562 leukemia): 2.22 µM | TGI (K-562 leukemia): > 100 µM | GI50 (MDA-MB-231 breast): 0.994 µM | TGI (MDA-MB-231 breast): > 100 µM | GI50 (SF-539 CNS): 1.11 µM | TGI (SF-539 CNS): 3.79 µM | GI50 (TK-10 renal): 0.354 µM | TGI (TK-10 renal): 3.85 µM | GI50 (MDA-MB-435): 2.19 µM | TGI (MDA-MB-435): > 100 µM | GI50 (HCT-15 colon): 1.33 µM | TGI (HCT-15 colon): > 100 µM | GI50 (RXF 393 renal): 0.606 µM | TGI (RXF 393 renal): 3 µM

O=C1CSC(c2cccc([N+](=O)[O-])c2)N1c1ccc(-c2ccc(-n3c(-c4ccccc4)nc4ccccc4c3=O)cc2)cc1 (stereo not given)
TGI (SK-OV-3 ovarian): > 100 µM | TGI (DU-145 prostate): > 100 µM | TGI (T-47D breast): > 100 µM | TGI (HOP-62 NSCLC): > 100 µM | TGI (SK-MEL-5 melanoma): > 100 µM | TGI (UACC-62 melanoma): > 100 µM | TGI (SW-620 colon): > 100 µM | TGI (NCI-H522 lung): > 100 µM | TGI (U251 CNS): > 100 µM | TGI (M14 melanoma): > 100 µM | TGI (KM12 colon): 81 µM | TGI (PC-3 prostate): > 100 µM | TGI (SN12C renal): > 100 µM | TGI (OVCAR-4 ovarian): > 100 µM | TGI (COLO 205 colon): > 100 µM | TGI (CAKI-1 renal): > 100 µM | TGI (OVCAR-3 ovarian): > 100 µM | TGI (SNB-19 CNS): > 100 µM | TGI (SR leukemia): > 100 µM | TGI (HL-60(TB) leukemia): > 100 µM | TGI (NCI/ADR-RES ovarian): > 100 µM | TGI (SK-MEL-28 melanoma): > 100 µM | TGI (BT-549 breast): 98.3 µM | TGI (RPMI-8226 leukemia): > 100 µM | TGI (SF-295 CNS): > 100 µM | TGI (NCI-H226 lung): > 100 µM | TGI (IGROV1 ovarian): > 100 µM | TGI (A549 NSCLC): > 100 µM | TGI (MOLT-4 leukemia): > 100 µM | TGI (ACHN renal): > 100 µM | TGI (786-0 renal): > 100 µM | TGI (EKVX NSCLC): > 100 µM | TGI (A498 renal): > 100 µM | TGI (HCT-116 colon): > 100 µM | TGI (NCI-H23 lung): > 100 µM | TGI (HS 578T breast): > 100 µM | TGI (UACC-257 melanoma): > 100 µM | TGI (HOP-92 NSCLC): > 100 µM | TGI (HCC-2998 colon): > 100 µM | TGI (NCI-H460 lung): > 100 µM | TGI (SF-268 CNS): > 100 µM | TGI (CCRF-CEM leukemia): 91.9 µM | TGI (MCF7 breast): 92.6 µM | TGI (MALME-3M melanoma): > 100 µM | TGI (OVCAR-5 ovarian): > 100 µM | TGI (SK-MEL-2 melanoma): > 100 µM | TGI (LOX IMVI melanoma): > 100 µM | TGI (HT29 colon): > 100 µM | TGI (OVCAR-8 ovarian): > 100 µM | TGI (K-562 leukemia): > 100 µM | TGI (MDA-MB-231 breast): > 100 µM | TGI (UO-31 renal): > 100 µM | TGI (SF-539 CNS): > 100 µM | TGI (TK-10 renal): > 100 µM | TGI (MDA-MB-435): > 100 µM | TGI (HCT-15 colon): > 100 µM
